Data as given in patent EP2949653A1, “ISOXAZOLE DERIVATIVES AS LEUKOTRIENE BIOSYNTHESIS INHIBITORS” (Banoglu, Erden, priority 2014, dated 2015).
Values joined by “and” are separate entries in the source; they are usually repeats but may differ in a detail not shown here. Identical values can stand only once. Like-named read-outs stand apart in the source and are kept apart here.

Columns and labels:
[1] = test system: 5-LO mediated product formation; assay: 5-LO mediated product formation in intact neutrophils stimulated with A23187 (cell-based); parameters: species or system human; conditions: for IC50: Neutrophil
Protocol: (§1) Cell based and cell-free assays carried out in biological studies, immunofluorescence microscopy analysis and zymosan-induced peritonitis in mice are performed as described hereinabove (Pegola, C. and et al., British J. Pharmacology, 2014, D01:10.1111/bph.12625). In the cell based assays (intact neutrophils or monocytes), 5-LO mediated product formation is started, after pre-incubation with test compounds (or control DMSO) for 15 min. at 37 °C, with addition of Ca-ionophore A23187 (2.5 µM) to the fresh 5 x 10^6 neutrophils or monocytes suspended in 1 ml of PGC buffer (phosphate buffered saline (PBS) solution containing 1 mg ml^-1 glucose and 1mM CaCl2, pH 7.4). After the incubation for 10 min. at 37 °C, the reaction is ended with addition of 1 ml of methanol, and 30 µL 1 N HCl, 200 ng prostaglandin B1 and 500 µL PBS are added to the mixture. In cell-free assays (isolated 5-LO and cell homogenates), human recombinant 5-LO protein or 40,000g supernatant is added to 1 ml of 5-LO reaction mixture (PBS, pH 7.4, 1 mM EDTA, 1 mM ATP), and then incubated with test compounds (or control DMSO) for 10 min. at 4°C, heated to 37 °C and 2 mM CaCl2 as well as AA at certain concentrations are added. The reaction is ended as described for the cell-based assays. Resulting 5-LO mediated products are extracted and analysed by the known method of high pressure liquid chromatography (HPLC) (Pergola, C. Proc Natl. Acad. Sci. U.S.A. 2008, 105, 19881). 5-LO mediated product formation (LTB4 and all trans isomers, and 5 (S)-hydro(pero)xy-6-trans-8, 11, 14-cis-eicosatetraenoic acid, 5-H(p)ETE) is expressed as ng per 10^6 cell. Cysteinyl-LTs have not been analyzed because that the amount of C4, D4 and E4 and LTB4 oxidation products are below the detection limit.
(§2) Compounds were tested in intact human neutrophils stimulated with 2.5 µM A23187 under cell based conditions and on purified 5-LO under cell free conditions. ^aData are given as remaining activity as a percentage of control (100%) at 10 µM or 1 µM inhibitor concentrations (means ± SE, n = 3-6).
Compound 9hj inhibited 5-LO mediated product formation with IC50 of 60 nM in human neutrophils. Neutrophils are stimulated with Ca-ionophore A23187 (2.5 µM), without the addition of exogenous arachidonic acid (AA), after pre-incubation with 9hj or vehicle (0.1 % DMSO). 100% controls correspond to 275.7 ng mL^-1 of 5-LO mediated products (Figure 1).
100% controls correspond to 328.97 ng mL^-1 of 5-LO mediated products.

purified 5-LO = target: T1, purified 5-LO (Homo sapiens, UniProt P09917); assay: Purified / human recombinant 5-LO activity (cell-free); assay type: biochemical
T1 sequence (P09917 1-674): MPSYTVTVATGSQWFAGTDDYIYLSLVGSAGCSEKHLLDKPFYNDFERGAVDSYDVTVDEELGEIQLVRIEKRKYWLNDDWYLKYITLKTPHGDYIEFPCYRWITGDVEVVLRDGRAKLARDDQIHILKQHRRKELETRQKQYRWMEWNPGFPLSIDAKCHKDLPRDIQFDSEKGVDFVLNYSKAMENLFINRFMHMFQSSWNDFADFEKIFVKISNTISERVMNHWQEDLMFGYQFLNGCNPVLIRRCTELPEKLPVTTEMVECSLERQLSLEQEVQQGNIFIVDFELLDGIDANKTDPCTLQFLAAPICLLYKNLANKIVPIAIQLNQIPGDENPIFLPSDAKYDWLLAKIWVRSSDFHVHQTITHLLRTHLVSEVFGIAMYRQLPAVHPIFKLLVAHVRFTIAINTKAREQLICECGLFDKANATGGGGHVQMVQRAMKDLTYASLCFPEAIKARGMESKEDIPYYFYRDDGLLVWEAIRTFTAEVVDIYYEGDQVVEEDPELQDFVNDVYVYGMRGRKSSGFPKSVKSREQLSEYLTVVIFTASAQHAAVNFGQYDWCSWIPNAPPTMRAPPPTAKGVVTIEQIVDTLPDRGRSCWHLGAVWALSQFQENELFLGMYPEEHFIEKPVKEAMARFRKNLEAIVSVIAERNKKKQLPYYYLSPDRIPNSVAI
Protocol: as §1, §2
9hj was added 15 min before addition of 2 mM Ca^2+ plus 3 µM, 10 µM and 30 µM AA. 100% controls correspond to 200.35 ng mL^-1 for 3 µM AA, 514.36 ng mL^-1 for 10 µM AA and 537.73 ng mL^-1 for 30 µM AA.

5-LO plus FLAP = target: T2, 5-LO plus FLAP (Homo sapiens, UniProt P20292); assay: 5-LO mediated product synthesis in HEK293 cells transfected with 5-LO plus FLAP; assay type: cell-based; conditions: 2.5 µM A23187 plus 3 µM AA (Figure 7)
T2 construct: expressed in transfected cells; host or cells: HEK293 (stably transfected)
T2 sequence (P20292 1-161): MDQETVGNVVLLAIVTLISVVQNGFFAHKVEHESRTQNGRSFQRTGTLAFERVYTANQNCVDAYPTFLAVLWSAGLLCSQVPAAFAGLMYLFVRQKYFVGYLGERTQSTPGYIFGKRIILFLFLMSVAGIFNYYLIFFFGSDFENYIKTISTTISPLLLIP
Protocol: Compound 9hj inhibited 5-LO mediated product synthesis in HEK293 cells transfected with only 5-LO, with IC50 of 900 nM. […] After preincubation of cells with 9hj for 15 min at 37°C, cells were stimulated with 2.5 µM A23187 plus 3 µM AA for 10 min at 37°C. Data are expressed as percentage of vehicle control (0.1% DMSO). 100% controls correspond to 157.48 ng mL^-1 for 5-LO transfected cells and 155.15 ng mL^-1 for 5-LO plus FLAP transfected cells.

translocation of 5-LO = assay: 5-LO subcellular localization by immunofluorescence microscopy; assay type: cell-based; conditions: 0.1 and 1 µM; Ca-ionophore A23187 (2.5 µM; 3 min) (Figure 8)

IC50 ([1]; Homo sapiens, A23187 (2.5 µM), without exogenous AA, vehicle 0.1 % DMSO (Figure 1), read-out: IC50 5-LO mediated product formation in human neutrophils): 0.06 µM | IC50 ([1]; intact human neutrophils stimulated with 2.5 µM A23187, mean ± SE, n = 3-4, read-out: Inhibition of purified 5-LO activity IC50 (µM) cell based): 0.24 µM | IC50 (purified 5-LO; human recombinant 5-LO, at 3, 10 and 30 µM substrate AA (Figure 5), read-out: mean IC50 activity of isolated 5-LO): 2 µM | IC50 (purified 5-LO; purified 5-LO under cell free conditions, mean ± SE, n = 3-4, read-out: Inhibition of purified 5-LO activity IC50 (µM) cell-free): 8 µM and 8.01 µM | IC50 (5-LO plus FLAP): 310 nM
Structure (SMILES): O=C(O)c1noc(-c2ccc(OCc3ccc4ccccc4n3)cc2)c1-c1ccc(Cl)cc1 [Compound 9hj, 4-(4-Chlorophenyl)-5-(4-(quinolin-2-ylmethoxy)phenyl)isoxazole-3-carboxylic acid]
activity at 1 µM ([1]; PMNL, remaining activity at 1 µM inhibitor, human neutrophils, 2.5 µM A23187, means ± SE, n = 3-6, read-out: 5-LO mediated product formation in intact neutrophils (PMNL) (% of control) at 1 µM): 12.1 ± 5.26% | activity at 10 µM ([1]; PMNL, remaining activity at 10 µM inhibitor, human neutrophils, 2.5 µM A23187, means ± SE, n = 3-6, read-out: 5-LO mediated product formation in intact neutrophils (PMNL) (% of control) at 10 µM): 2.73 ± 1.41% | translocation of 5-LO from soluble subcellular compartment to nuclear membrane (translocation of 5-LO): inhibited translocation
